The target of the experiment is T1, glucosylceramide synthase (Homo sapiens, UniProt Q16739).
T1 construct: made in house; host or cells: Expi293F cells (transient expression, pcDNA3.3-TOPO vector); microsome fraction used as enzyme source
T1 sequence (Q16739 1-394): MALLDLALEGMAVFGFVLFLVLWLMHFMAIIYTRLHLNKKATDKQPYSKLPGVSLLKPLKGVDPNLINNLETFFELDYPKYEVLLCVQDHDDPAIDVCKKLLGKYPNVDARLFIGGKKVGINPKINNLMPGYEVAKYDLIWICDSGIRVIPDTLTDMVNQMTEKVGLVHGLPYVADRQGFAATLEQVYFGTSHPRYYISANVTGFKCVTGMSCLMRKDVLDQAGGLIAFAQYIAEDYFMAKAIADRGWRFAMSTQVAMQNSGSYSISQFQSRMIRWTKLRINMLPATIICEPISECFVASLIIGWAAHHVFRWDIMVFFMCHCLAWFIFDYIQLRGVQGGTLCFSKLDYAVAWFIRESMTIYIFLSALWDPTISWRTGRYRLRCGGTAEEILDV
As to the kind of experiment: Glucosylceramide synthase (GCS) enzyme assay, microsome fraction, C8 glucosylceramide quantified by Rapidfire MS/MS. Format: biochemical. The following applies: test compound 10 μM; 1.7 μM UDP-glucose, 3 μM C8 ceramide; room temperature 60 min; read-out: GCS enzyme inhibitory rate at 10 μM (%) (% of control). The gist of the method:
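Test compound, 10 μM final, was run against human GCS from transfected Expi293F microsome fractions, using substrate solution of 6 μM C8 ceramide (in DOPC liposomes) plus 3.4 μM UDP-glucose, pH 7.5 Tris buffer, 60 min, room temperature. Product C8 glucosylceramide measured by Rapidfire MS/MS against an internal standard, % inhibition referenced to no-enzyme and DMSO wells.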
Take `O=C1c2ccnc(-c3ccc(F)cc3OCC(F)(F)F)c2CN1c1ccc(C2(O)COC2)cc1` [Example 155, 4-[4-fluoro-2-(2,2,2-trifluoroethoxy)phenyl]-2-[4-(3-hydroxyoxetan-3-yl)phenyl]-2,3-dihydro-1H-pyrrolo[3,4-c]pyridin-1-one]: the inhibition at 10 µM stood at 93%.
The result for `N#Cc1ccc(N2Cc3ccnc(-c4ccc(F)cc4OCC(F)(F)F)c3C2)nc1` [Example 156, 6-{4-[4-fluoro-2-(2,2,2-trifluoroethoxy)phenyl]-1,3-dihydro-2H-pyrrolo[3,4-c]pyridin-2-yl}pyridine-3-carbonitrile] reads 94%; that for `CCS(=O)(=O)c1ccc(N2Cc3c(ccnc3-c3ccccc3OCC(F)(F)F)C2=O)cc1` [Example 160, 2-[4-(ethanesulfonyl)phenyl]-4-[2-(2,2,2-trifluoroethoxy)phenyl]-2,3-dihydro-1H-pyrrolo[3,4-c]pyridin-1-one], 99%; that for `CS(=O)(=O)c1ccc(N2Cc3c(ccnc3-c3ccccc3OCC(F)(F)F)C2=O)cc1` [Example 161, 2-[4-(methanesulfonyl)phenyl]-4-[2-(2,2,2-trifluoroethoxy)phenyl]-2,3-dihydro-1H-pyrrolo[3,4-c]pyridin-1-one], 98%.
With `CN(C)C(=O)c1ccc(N2Cc3c(ccnc3-c3ccccc3OCC(F)(F)F)C2=O)cc1` [Example 162, N,N-dimethyl-4-{1-oxo-4-[2-(2,2,2-trifluoroethoxy)phenyl]-1,3-dihydro-2H-pyrrolo[3,4-c]pyridin-2-yl}benzamide], the inhibition at 10 µM came to 95%.
The result for `O=C1c2ccnc(-c3ccc(F)cc3OCC(F)(F)F)c2CN1c1ccc(C2(O)CCC2)cc1` [Example 163, 4-[4-fluoro-2-(2,2,2-trifluoroethoxy)phenyl]-2-[4-(1-hydroxycyclobutyl)phenyl]-2,3-dihydro-1H-pyrrolo[3,4-c]pyridin-1-one] reads 100%; that for `O=C1c2ccnc(-c3ccc(F)cc3OCC(F)(F)F)c2CN1c1ccc(O[C@@H]2CCOC2)cc1` [Example 164, 4-[4-fluoro-2-(2,2,2-trifluoroethoxy)phenyl]-2-(4-{[(3R)-oxolan-3-yl]oxy}phenyl)-2,3-dihydro-1H-pyrrolo[3,4-c]pyridin-1-one], 99%; that for `O=C1c2ccnc(-c3ccc(F)cc3OCC(F)(F)F)c2CN1c1ccc(O[C@H]2CCOC2)cc1` [Example 165, 4-[4-fluoro-2-(2,2,2-trifluoroethoxy)phenyl]-2-(4-{[(3S)-oxolan-3-yl]oxy}phenyl)-2,3-dihydro-1H-pyrrolo[3,4-c]pyridin-1-one], 98%.
With `O=C(c1ccc(N2Cc3c(ccnc3-c3ccc(F)cc3OCC(F)(F)F)C2=O)cc1)N1CCC1` [Example 166, 2-[4-(azetidine-1-carbonyl)phenyl]-4-[4-fluoro-2-(2,2,2-trifluoroethoxy)phenyl]-2,3-dihydro-1H-pyrrolo[3,4-c]pyridin-1-one], the inhibition at 10 µM stood at 87%.
The result for `O=C1c2ccnc(-c3ccc(F)cc3OCC(F)(F)F)c2CN1c1ccc(OC2CCOCC2)nc1` [Example 167, 4-[4-fluoro-2-(2,2,2-trifluoroethoxy)phenyl]-2-{6-[(oxan-4-yl)oxy]pyridin-3-yl}-2,3-dihydro-1H-pyrrolo[3,4-c]pyridin-1-one] reads 98%; that for `Fc1ccc(N2Cc3ccnc(-c4ccccc4OCC(F)(F)F)c3C2)cc1` [Example 168, 2-(4-fluorophenyl)-4-[2-(2,2,2-trifluoroethoxy)phenyl]-2,3-dihydro-1H-pyrrolo[3,4-c]pyridine], 100%.
The result for `Fc1ccc(N2Cc3ccnc(-c4ccc(F)cc4OCC(F)(F)F)c3C2)nc1` [Example 169, 2-(5-fluoropyridin-2-yl)-4-[4-fluoro-2-(2,2,2-trifIuoroethoxy)phenyl]-2,3-dihydro-1H-pyrrolo[3,4-c]pyridine] reads 95%; that for `COc1cnccc1-c1nccc2c1CN(c1ccc(F)cc1)C2` [Example 170, 2-(4-fluorophenyl)-4-(3-methoxypyridin-4-yl)-2,3-dihydro-1H-pyrrolo[3,4-c]pyridine], 88%; that for `CC(C)(C#N)COc1cc(F)ccc1-c1nccc2c1CN(c1ccc(OC(F)F)nc1)C2=O` [Example 171, 3-(2-{2-[6-(difluoromethoxy)pyridin-3-yl]-1-oxo-2,3-dihydro-1H-pyrrolo[3,4-c]pyridin-4-yl}-5-fluorophenoxy)-2,2-dimethylpropanenitrile], 52%.
As to `COc1ccccc1-c1nccc2c1CN(c1ccc(F)cc1)C2` [Example 172, 2-(4-fluorophenyl)-4-(2-methoxyphenyl)-2,3-dihydro-1H-pyrrolo[3,4-c]pyridine], the inhibition at 10 µM was 91%.
As for `O=C1c2ccnc(-c3ccc(F)cc3OCCOC(F)(F)F)c2CN1c1ccc(OC(F)F)nc1` [Example 174, 2-[6-(difluoromethoxy)pyridin-3-yl]-4-{4-fluoro-2-[2-(trifluoromethoxy)ethoxy]phenyl}-2,3-dihydro-1H-pyrrolo[3,4-c]pyridin-1-one], the inhibition at 10 µM amounted to 99%.
Turning to `Cc1cncc(OCC(F)(F)F)c1-c1nccc2c1CN(c1ccc(OC(F)F)cc1)C2=O` [Example 175, 2-[4-(difluoromethoxy)phenyl]-4-[3-methyl-5-(2,2,2-trifluoroethoxy)pyridin-4-yl]-2,3-dihydro-1H-pyrrolo[3,4-c]pyridin-1-one ditrifluoroacetate], the inhibition at 10 µM turned out to be 100%.
The result for `O=C1C2=C(CN1c1ccc(OCC(F)(F)F)cc1)C(c1ccc(F)cc1OCC(F)(F)F)=NCCN2` [Example 176, 5-[4-fluoro-2-(2,2,2-trifluoroethoxy)phenyl]-7-[4-(2,2,2-trifluoroethoxy)phenyl]-2,3,6,7-tetrahydropyrrolo[3,4-e][1,4]diazepin-8(1H)-one] reads 100%.
As for `O=C1c2ccnc(-c3ccc(F)cc3OCC(F)(F)F)c2CN1c1ccc(N2CCOCC2)nc1` [Example 177, 4-[4-fluoro-2-(2,2,2-trifluoroethoxy)phenyl]-2-[6-(morpholin-4-yl)pyridin-3-yl]-2,3-dihydro-1H-pyrrolo[3,4-c]pyridin-1-one], the inhibition at 10 µM was determined as 98%.
The result for `COC1(c2ccc(N3Cc4c(ccnc4-c4ccc(F)cc4OCC(F)(F)F)C3=O)cc2)COC1` [Example 178, 4-[4-fluoro-2-(2,2,2-trifluoroethoxy)phenyl]-2-[4-(3-methoxyoxetan-3-yl)phenyl]-2,3-dihydro-1H-pyrrolo[3,4-c]pyridin-1-one] reads 98%.
The result for `CN1CCN=C(c2ccc(F)cc2OCC(F)(F)F)C2=C1C(=O)N(c1ccc(OCC(F)(F)F)cc1)C2` [Example 179, 5-[4-fluoro-2-(2,2,2-trifluoroethoxy)phenyl]-1-methyl-7-[4-(2,2,2-trifluoroethoxy)phenyl]-2,3,6,7-tetrahydropyrrolo[3,4-e][1,4]diazepin-8(1H)-one] reads 91%; that for `O=C(c1ccc(N2Cc3c(ccnc3-c3ccc(F)cc3OCC(F)(F)F)C2=O)cc1)N1CCCC1` [Example 180, 4-[4-fluoro-2-(2,2,2-trifluoroethoxy)phenyl]-2-[4-(pyrrolidine-1-carbonyl)phenyl]-2,3-dihydro-1H-pyrrolo[3,4-c]pyridin-1-one], 92%.
The result for `O=C(c1ccc(N2Cc3c(ccnc3-c3ccc(F)cc3OCC(F)(F)F)C2=O)cc1)N1CC(F)(F)C1` [Example 181, 2-[4-(3,3-difluoroazetidine-1-carbonyl)phenyl]-4-[4-fluoro-2-(2,2,2-trifluoroethoxy)phenyl]-2,3-dihydro-1H-pyrrolo[3,4-c]pyridin-1-one] reads 89%; that for `O=C(c1ccc(N2Cc3c(ccnc3-c3ccc(F)cc3OCC(F)(F)F)C2=O)cc1)N1CCC(F)(F)CC1` [Example 182, 2-[4-(4,4-difluoropiperidine-1-carbonyl)phenyl]-4-[4-fluoro-2-(2,2,2-trifluoroethoxy)phenyl]-2,3-dihydro-1H-pyrrolo[3,4-c]pyridin-1-one], 99%.
For `COc1ccccc1-n1ncc2c1CN(c1ccc(F)cc1)C2` [Example 183, 5-(4-fluorophenyl)-1-(2-methoxyphenyl)-1,4,5,6-tetrahydropyrrolo[3,4-c]pyrazole], the inhibition at 10 µM is 83%.
The result for `CC(C)(O)c1ccc(N2Cc3c(ccnc3-c3ccccc3OCC(F)(F)F)C2=O)cn1` [Example 184, 2-[6-(2-hydroxypropan-2-yl)pyridin-3-yl]-4-[2-(2,2,2-trifluoroethoxy)phenyl]-2,3-dihydro-1H-pyrrolo[3,4-c]pyridin-1-one] reads 96%; that for `O=C1c2ncnc(-c3ccc(F)cc3OCC(F)(F)F)c2CN1c1ccc(F)cc1` [Example 185, 6-(4-fluorophenyl)-4-[4-fluoro-2-(2,2,2-trifluoroethoxy)phenyl]-5,6-dihydro-7H-pyrrolo[3,4-d]pyrimidin-7-one], 71%; that for `O=C1c2ccnc(-c3ccccc3OCC(F)(F)F)c2CN1c1ccc(O[C@@H]2CCOC2)cc1` [Example 187, 2-(4-{[(3R)-oxolan-3-yl]oxy}phenyl)-4-[2-(2,2,2-trifluoroethoxy)phenyl]-2,3-dihydro-1H-pyrrolo[3,4-c]pyridin-1-one], 100%.
